The results in this text go back to patent US20250066322A1, “SUBSTITUTED HETEROCYCLIC COMPOUNDS” (BRISTOL-MYERS SQUIBB COMPANY, priority 2021, published 2025).

In general, IC50 refers to the point on the concentration scale where inhibition reaches its midpoint.

The test system of one experiment is IFNα-Induced STAT Phosphorylation (pSTAT5). In words: IFNα-Induced STAT Phosphorylation in Human Whole Blood. Type of experiment: cell-based. To be noted: 1 h incubation with compound, then 1000 U/mL recombinant human IFNα A/D for 15 min, pSTAT5 in CD3 positive population, read-out: Human Whole blood IFNa pSTAT5 IC50. How it is done: IFNα-Induced STAT Phosphorylation in Human Whole Blood
After an hour long incubation with compound, human whole blood (drawn with ACD-A as anticoagulant) was stimulated with 1000 U/mL recombinant human IFNα A/D (R&D Systems 11200-2) for 15 min. The stimulation was stopped by adding Fix/Lyse buffer (BD 558049). Cells were stained with a CD3 FITC antibody (BD 555916), washed, and permeabilized on ice using Perm III buffer (BD 558050). Cells were then stained with an Alexa-Fluor 647 pSTAT5 (pY694) antibody (BD 612599) for 60 min prior to analysis on the iQue Plus. The amount of pSTAT5 expression was quantitated by median fluorescence intensity after gating on the CD3 positive population.
For the molecule `[2H]C([2H])([2H])NC(=O)c1nnc(NC(=O)C2CC2C)cc1Nc1ncccc1S(=O)(=O)C(F)F` (single isomer, unassigned) [Example 13a, 4-((3-((difluoromethyl)sulfonyl)pyridin-2-yl)amino)-N-(methyl-d3)-6-(2-methylcyclopropane-1-carboxamido)pyridazine-3-carboxamide], the IC50 stood at 110 nM. Still for that read-out and setting: under `[2H]C([2H])([2H])NC(=O)c1nnc(NC(=O)C2CC2C)cc1Nc1ncccc1S(=O)(=O)C(F)F` (single isomer, unassigned) [Example 13b, 4-((3-((difluoromethyl)sulfonyl)pyridin-2-yl)amino)-N-(methyl-d3)-6-(2-methylcyclopropane-1-carboxamido)pyridazine-3-carboxamide] stands 10 nM; under `CCC(=O)c1cnc(NC(=O)C2CC2C)cc1Nc1ncccc1S(=O)(=O)C(F)F` (single isomer, unassigned) [Example 21a, N-(4-((3-((difluoromethyl)sulfonyl)pyridin-2-yl)amino)-5-propionylpyridin-2-yl)-2-methylcyclopropane-1-carboxamide], 1400 nM; under `CCC(=O)c1cnc(NC(=O)C2CC2C)cc1Nc1ncccc1S(=O)(=O)C(F)F` (single isomer, unassigned) [Example 21b, N-(4-((3-((difluoromethyl)sulfonyl)pyridin-2-yl)amino)-5-propionylpyridin-2-yl)-2-methylcyclopropane-1-carboxamide], 50 nM. Same read-out and setting: under `CCC(=O)c1cnc(NC(=O)[C@@H]2CC23CC3)cc1Nc1ncccc1S(=O)(=O)C(F)F` [Example 17] stands 960 nM.

Still in this experiment, the particulars now being: Homo sapiens, 1 h incubation with compound, then 1000 U/mL recombinant human IFNα A/D for 15 min, pSTAT5 in CD3 positive population, read-out: Human Whole blood IFNa pSTAT5 IC50.
In the case of `[2H]C([2H])([2H])NC(=O)c1nnc(NC(=O)C2CC2)cc1Nc1ncccc1S(=O)(=O)C1CC1` [Example 1, 6-(cyclopropanecarboxamido)-4-((3-(cyclopropylsulfonyl)pyridin-2-yl)amino)-N-(methyl-d3) pyridazine-3-carboxamide], the IC50 stood at 70 nM. On the same count and under the same terms, under `[2H]C([2H])([2H])NC(=O)c1nnc(NC(=O)OC)cc1Nc1ncccc1S(=O)(=O)C1CC1` [Example 2, methyl (5-((3-(cyclopropylsulfonyl)pyridin-2-yl)amino)-6-((methyl-d3)carbamoyl)pyridazin-3-yl)carbamate] stands 670 nM; under `CCC(=O)c1cnc(NC(=O)C2CC2)cc1Nc1ncccc1S(=O)(=O)C1CC1` [Example 3, N-(4-((3-(cyclopropylsulfonyl)pyridin-2-yl)amino)-5-propionylpyridin-2-yl)cyclopropanecarboxamide], 590 nM; under `[2H]C([2H])([2H])NC(=O)c1nnc(NC(=O)C2CC2)cc1Nc1ncccc1S(=O)(=O)C(F)F` [Example 4, 6-(cyclopropanecarboxamido)-4-((3-((difluoromethyl)sulfonyl)-pyridin-2-yl)amino)-N-(methyl-d3)pyridazine-3-carboxamide], 30 nM. Same read-out and setting: under `[2H]C([2H])([2H])NC(=O)c1nnc(NC(=O)OC)cc1Nc1ncccc1S(=O)(=O)C(F)F` [Example 5, methyl (5-((3-((difluoromethyl)-sulfonyl)pyridin-2-yl)amino)-6-((methyl-d3)carbamoyl)-pyridazin-3-yl)carbamate] stands 250 nM; under `[2H]C([2H])([2H])NC(=O)c1nnc(NC(=O)N(C)C)cc1Nc1ncccc1S(=O)(=O)C(F)F` [Example 6, 4-((3-((difluoromethyl)sulfonyl)pyridin-2-yl)amino)-6-(3,3-dimethylureido)-N-(methyl-d3)pyridazine-3-carboxamide], 210 nM.

With `CCC(=O)c1cnc(NC(=O)C2CC2)cc1Nc1ncccc1S(=O)(=O)C(F)F` [Example 15, N-(4-((3-((difluoromethyl)sulfonyl)pyridin-2-yl)amino)-5-propionylpyridin-2-yl)cyclopropanecarboxamide], the IC50 came to 150 nM. Same read-out and setting: under `CCC(=O)c1cnc(NC(=O)N(C)C)cc1Nc1ncccc1S(=O)(=O)C(F)F` [Example 16, 3-(4-((3-((difluoromethyl)sulfonyl)pyridin-2-yl)amino)-5-propionylpyridin-2-yl)-1,1-dimethylurea] stands 980 nM. Turning to `CCC(=O)c1cnc(NC(=O)[C@H]2C[C@@H]2C)cc1Nc1ncccc1S(=O)(=O)C(F)F` [Example 18, (1S,2S)-N-(4-((3-((difluoromethyl)sulfonyl)pyridin-2-yl)amino)-5-propionylpyridin-2-yl)-2-methylcyclopropane-1-carboxamide], the half-maximal inhibitory concentration (IC50) amounted to 850 nM. On the same count and under the same terms, under `CCC(=O)c1cnc(NC(=O)[C@H]2C[C@@H]2F)cc1Nc1ncccc1S(=O)(=O)C(F)F` [Example 20, (1R,2S)-N-(4-((3-((difluoromethyl)sulfonyl)pyridin-2-yl)amino)-5-propionylpyridin-2-yl)-2-fluorocyclopropane-1-carboxamide] stands 460 nM; under `CCC(=O)c1cnc(Nc2cccc(F)n2)cc1Nc1ncccc1S(=O)(=O)C(F)F` [Example 22, 1-(4-((3-((difluoromethyl)sulfonyl)pyridin-2-yl)amino)-6-((6-fluoropyridin-2-yl)amino)pyridin-3-yl)propan-1-one], 220 nM.
